Laboratory results published in patent US20040023994A1 (priority 2002, published 2004).
Where two headings read alike, the source gives them in different places. Marks after values point to notes of the source that are not given here.

Tests used:
MDA-MB-435 [1] = details: MDA-MB-435, Breast, NCI database, cited from earlier work
OVCAR-4 = details: OVCAR-4, Ovarian, NCI database, cited from earlier work
OVCAR-8 [2] = details: OVCAR-8, Ovarian, NCI database, cited from earlier work
KM12 = details: KM12, Colon, NCI database, cited from earlier work
786-0 [3] = details: 786-0, Renal, NCI database, cited from earlier work
CCRF-CEM = details: Leukemia, NCI database, cited from earlier work
SR = details: Leukemia, NCI database, cited from earlier work
[4] = cited from earlier work
HL-60(TB) = details: cited from earlier work
MDA-N = format: cell-based; details: Breast, 48 h
PC-3 = format: cell-based; details: PC-3, Prostate, 48 h
HS 578T = details: 48 h; for CC50: read-out: LC50
MDA-MB-435 [5] = details: for CC50: read-out: LC50
BT-549 = details: for CC50: read-out: LC50
OVCAR-5 = details: for CC50: read-out: LC50
OVCAR-8 [6] = details: for CC50: read-out: LC50
SK-OV-3 = details: for CC50: read-out: LC50
COLO 205 = details: for CC50: read-out: LC50
786-0 [7] = details: for CC50: read-out: LC50
M14 = details: for CC50: read-out: LC50
SNB-19 = details: for CC50: read-out: LC50
[8] = test system: Heterozygous nude CD-1 male mice; experiment: Hematology analyses in treated mice; details: i.p.
Description: Heterozygous nude CD-1 male mice were treated (i.p.) with multiple doses consisting of either one dose daily for three consecutive days (cis-AVTP or trans-AVTG, 21.25 μmol/kg, 6-TG, 8.5 or 21.25 μmol/kg, or vehicle; one cycle), or one dose daily for three consecutive days, repeated again five days later (cis-AVTP, trans-AVTG or 6-TG, 8.5 or 21.25 μmol/kg, or vehicle; two cycles).
The mice were sacrificed 24 h after the last treatment. Urine was collected for 24 h before initiation of treatment and every 24 h thereafter until the mice were sacrificed. Blood was collected by cardiac puncture and blood cells counted. Sections of liver, kidney, intestines, stomach and sternum were stained with hematoxylin and eosin and subjected to pathological analysis. Bone marrow smears were prepared for assessment of bone marrow cellularity. Liver function was evaluated by measuring alanine aminotransferase-(ALT) and aspartate aminotransferase (AST) activities in plasma. Kidney function was evaluated by measuring blood urea nitrogen in plasma and γ-glutamyltransferase activity and glucose levels in urine.

[9] = read-out: LC50 (the source's name)
[10] = Homo sapiens, read-out: LC50 (the source's name)

Sc1ncnc2nc[nH]c12 [6-MP, 6-mercaptopurine]
GI50 (MDA-MB-435 [1]): 1.4 µM | TGI (MDA-MB-435 [1]): >100 µM | CC50 (MDA-MB-435 [1]; [9]): > 100 µM | GI50 (OVCAR-4): 7.11 µM | TGI (OVCAR-4): >100 µM | CC50 (OVCAR-4; [9]): > 100 µM | GI50 (OVCAR-8 [2]): 2.44 µM | TGI (OVCAR-8 [2]): >100 µM | CC50 (OVCAR-8 [2]; [9]): > 100 µM | GI50 (KM12): 7.31 µM | TGI (KM12): >100 µM | CC50 (KM12; [9]): > 100 µM | GI50 (786-0 [3]): 1.87 µM | TGI (786-0 [3]): >100 µM | CC50 (786-0 [3]; [9]): > 100 µM | CC50 (CCRF-CEM; [9]): > 100 µM | GI50 (CCRF-CEM): 1.22 µM | TGI (CCRF-CEM): >100 µM | CC50 (SR; [9]): > 100 µM | GI50 (SR): 1.27 µM | TGI (SR): >100 µM | dose absorbed after oral administration [4]: ≤ 37% | GI50 (HL-60(TB); Leukemia, NCI database): 2.3 µM | TGI (HL-60(TB); Leukemia, NCI database): >100 µM | CC50 (HL-60(TB); read-out: LC50, Leukemia, NCI database): > 100 µM

CC(=O)C=CSc1nc(N)nc2nc[nH]c12 [trans-AVTG, 6-(2-acetylvinylthio) guanine]
GI50 (MDA-N): 1.28 µM | TGI (MDA-N): 10.3 µM | GI50 (PC-3): 3.96 µM | TGI (PC-3): 19.7 µM | GI50 (NCI/ADR-RES; Breast, 48 h): 0.35 µM | TGI (NCI/ADR-RES; Breast, 48 h): 7.40 µM | CC50 (NCI/ADR-RES; read-out: LC50, Breast, 48 h): > 100 µM | GI50 (HS 578T; HS 578T, Breast): 1.78 µM | TGI (HS 578T; HS 578T, Breast): 26.9 µM | CC50 (HS 578T; HS 578T, Breast): > 100 µM | GI50 (MDA-MB-435 [5]; MDA-MB-435, Breast, 48 h): 1.04 µM | TGI (MDA-MB-435 [5]; MDA-MB-435, Breast, 48 h): 12.9 µM | CC50 (MDA-MB-435 [5]; MDA-MB-435, Breast, 48 h): 51.5 µM | GI50 (BT-549; BT-549, Breast, 48 h): 0.39 µM | TGI (BT-549; BT-549, Breast, 48 h): 5.75 µM | CC50 (BT-549; BT-549, Breast, 48 h): 43.1 µM | GI50 (OVCAR-5; OVCAR-5, Ovarian, 48 h): 0.54 µM | TGI (OVCAR-5; OVCAR-5, Ovarian, 48 h): 6.04 µM | CC50 (OVCAR-5; OVCAR-5, Ovarian, 48 h): 57.7 µM | GI50 (OVCAR-8 [6]; OVCAR-8, Ovarian, 48 h): 0.55 µM | TGI (OVCAR-8 [6]; OVCAR-8, Ovarian, 48 h): >100 µM | CC50 (OVCAR-8 [6]; OVCAR-8, Ovarian, 48 h): > 100 µM | GI50 (SK-OV-3; SK-OV-3, Ovarian, 48 h): 0.24 µM | TGI (SK-OV-3; SK-OV-3, Ovarian, 48 h): 0.78 µM | CC50 (SK-OV-3; SK-OV-3, Ovarian, 48 h): > 100 µM | GI50 (COLO 205; COLO 205, Colon, 48 h): 1.87 µM | TGI (COLO 205; COLO 205, Colon, 48 h): 3.98 µM | CC50 (COLO 205; COLO 205, Colon, 48 h): 8.43 µM | GI50 (786-0 [7]; 786-0, Renal, 48 h): 0.98 µM | TGI (786-0 [7]; 786-0, Renal, 48 h): 21.9 µM | CC50 (786-0 [7]; 786-0, Renal, 48 h): > 100 µM | GI50 (M14; M14, Melanoma, 48 h): 0.45 µM | TGI (M14; M14, Melanoma, 48 h): 12.0 µM | CC50 (M14; M14, Melanoma, 48 h): 53.5 µM | GI50 (SNB-19; SNB-19, CNS, 48 h): 18.7 µM | TGI (SNB-19; SNB-19, CNS, 48 h): 50.9 µM | CC50 (SNB-19; SNB-19, CNS, 48 h): > 100 µM

CC(=O)C=CSc1ncnc2nc[nH]c12 [cis-AVTP, 6-(2-acetylvinylthio) purine]
TGI (MDA-N): 4.48 µM | GI50 (MDA-N; Homo sapiens): 0.55 µM | CC50 (MDA-N; [10]): > 100 µM | GI50 (PC-3; Homo sapiens): 2.05 µM | CC50 (PC-3; [10]): 85.1 µM | TGI (PC-3): 10.2 µM | PLT ([8]; 8.5 μmol/kg, two cycles): 1160 ± 349 × 10^3 cells/μl | RBC ([8]; 8.5 μmol/kg, two cycles): 9.5 ± 0.3 × 10^6 cells/μl | WBC ([8]; 8.5 μmol/kg, two cycles): 5.9 ± 2.3 × 10^3 cells/μl | PLT ([8]; 21.25 μmol/kg, one cycle): 1644 ± 253^a × 10^3 cells/μl | RBC ([8]; 21.25 μmol/kg, one cycle): 8.9 ± 0.6^a × 10^6 cells/μl | WBC ([8]; 21.25 μmol/kg, one cycle): 8.0 ± 1.2^a × 10^3 cells/μl | PLT ([8]; 21.25 μmol/kg, two cycles): 1257 ± 335 × 10^3 cells/μl | RBC ([8]; 21.25 μmol/kg, two cycles): 9.0 ± 0.5 × 10^6 cells/μl | WBC ([8]; 21.25 μmol/kg, two cycles): 8.4 ± 1.9 × 10^3 cells/μl | change in peripheral white blood cell counts ([8]; trans-AVTG: only 21.25 μmol/kg two cycles, 6-TG: 8.5 or 21.25 μmol/kg one cycle or 21.25 μmol/kg two cycles): No change | TGI (NCI/ADR-RES; Breast, 48 h): 2.79 µM | GI50 (NCI/ADR-RES; Homo sapiens, 48 h): 0.51 µM | CC50 (NCI/ADR-RES; Homo sapiens, 48 h, read-out: LC50): > 100 µM | TGI (HS 578T; HS 578T, Breast): 8.79 µM | GI50 (HS 578T; Homo sapiens, Hs-578T): 0.46 µM | CC50 (HS 578T; Homo sapiens, Hs-578T): > 100 µM | GI50 (MDA-MB-435 [5]; Homo sapiens, MDA-MB-435, 48 h): 0.56 µM | CC50 (MDA-MB-435 [5]; Homo sapiens, MDA-MB-435, 48 h): 9.8 µM | TGI (MDA-MB-435 [5]; MDA-MB-435, Breast, 48 h): 2.75 µM | TGI (BT-549; BT-549, Breast, 48 h): 3.48 µM | GI50 (BT-549; Homo sapiens, BT-549, 48 h): 1.24 µM | CC50 (BT-549; Homo sapiens, BT-549, 48 h): 9.78 µM | GI50 (OVCAR-5; Homo sapiens, OVCAR-5, 48 h): 1.31 µM | CC50 (OVCAR-5; Homo sapiens, OVCAR-5, 48 h): 6.57 µM | TGI (OVCAR-5; OVCAR-5, Ovarian, 48 h): 2.94 µM | GI50 (OVCAR-8 [6]; Homo sapiens, OVCAR-8, 48 h): 1.53 µM | CC50 (OVCAR-8 [6]; Homo sapiens, OVCAR-8, 48 h): > 100 µM | TGI (OVCAR-8 [6]; OVCAR-8, Ovarian, 48 h): 5.93 µM | GI50 (SK-OV-3; Homo sapiens, SK-OV-3, 48 h): 0.11 µM | CC50 (SK-OV-3; Homo sapiens, SK-OV-3, 48 h): 33.3 µM | TGI (SK-OV-3; SK-OV-3, Ovarian, 48 h): 5.04 µM | TGI (COLO 205; COLO 205, Colon, 48 h): 1.70 µM | GI50 (COLO 205; Homo sapiens, COLO 205, 48 h): 0.46 µM | CC50 (COLO 205; Homo sapiens, COLO 205, 48 h): 4.74 µM | TGI (786-0 [7]; 786-0, Renal, 48 h): 3.48 µM | GI50 (786-0 [7]; Homo sapiens, 786-0, 48 h): 0.37 µM | CC50 (786-0 [7]; Homo sapiens, 786-0, 48 h): 24.9 µM | GI50 (M14; Homo sapiens, M14, 48 h): 0.07 µM | CC50 (M14; Homo sapiens, M14, 48 h): 7.75 µM | TGI (M14; M14, Melanoma, 48 h): 1.89 µM | GI50 (SNB-19; Homo sapiens, SNB-19, 48 h): 3.66 µM | CC50 (SNB-19; Homo sapiens, SNB-19, 48 h): 76.3 µM | TGI (SNB-19; SNB-19, CNS, 48 h): 18.2 µM
